Reference: US20250270172A1, “Pyrimidine Derivatives As Modulators of the 5-HT2A Serotonin Receptor Useful For The Treatment of Disorders Related Thereto” (Arena Pharmaceuticals, Inc., priority 2020, published 2025)

How the values were obtained:
5-HT2A [1] = target: T1, 5-HT2A (Homo sapiens (Human), UniProt P28223); test: Radioligand binding assay, [^3H]5-HT competition, 5-HT2A; conditions: [^3H]5-HT radioligand, membranes of HEK293 cells expressing recombinant 5-HT2A; Ki from IC50 by Cheng-Prusoff; read-out: 5-HT2A serotonin binding Ki value
T1 sequence (P28223 whole entry): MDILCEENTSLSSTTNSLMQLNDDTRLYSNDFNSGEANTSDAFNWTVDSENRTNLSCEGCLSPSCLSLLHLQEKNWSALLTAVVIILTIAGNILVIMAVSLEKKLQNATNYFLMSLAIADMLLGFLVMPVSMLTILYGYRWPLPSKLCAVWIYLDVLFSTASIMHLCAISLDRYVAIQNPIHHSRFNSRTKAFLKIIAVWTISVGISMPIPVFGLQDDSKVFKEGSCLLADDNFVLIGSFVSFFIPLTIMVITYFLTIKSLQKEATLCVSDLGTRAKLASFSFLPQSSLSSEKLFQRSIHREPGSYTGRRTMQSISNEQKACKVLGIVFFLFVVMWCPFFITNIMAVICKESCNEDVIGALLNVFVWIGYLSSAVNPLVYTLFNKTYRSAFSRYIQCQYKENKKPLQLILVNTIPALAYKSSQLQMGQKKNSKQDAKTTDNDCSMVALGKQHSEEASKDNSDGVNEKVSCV

5-HT2C = 5-HT2C (Homo sapiens (Human), UniProt P28335); test: HTRF IP-One antagonist assay, 5-HT2C; type: cell-based; conditions: HEK293 cells stably expressing receptor, inositol phosphate accumulation, 80 nM 5-HT in Assay Buffer;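 note: clonal HEK293 line with low 5-HT2C density (10–20 fmol/mg), HTRF detection of IP-One, 10-point dose curves from 10 µM in 5-fold steps, triplicate points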
5-HT2C, sequence (P28335 33-458): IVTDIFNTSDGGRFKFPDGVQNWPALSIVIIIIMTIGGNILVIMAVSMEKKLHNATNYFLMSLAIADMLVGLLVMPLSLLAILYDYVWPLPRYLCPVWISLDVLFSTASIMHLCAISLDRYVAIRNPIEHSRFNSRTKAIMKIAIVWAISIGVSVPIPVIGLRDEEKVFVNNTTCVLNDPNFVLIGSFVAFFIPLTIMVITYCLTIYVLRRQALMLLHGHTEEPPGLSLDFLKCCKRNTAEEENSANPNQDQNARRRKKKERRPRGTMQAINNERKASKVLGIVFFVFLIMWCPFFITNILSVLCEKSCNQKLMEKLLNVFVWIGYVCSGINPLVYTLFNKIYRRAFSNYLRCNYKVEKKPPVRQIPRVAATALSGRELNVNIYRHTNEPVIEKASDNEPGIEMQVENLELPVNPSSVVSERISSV

5-HT2A [2] = target: T1, 5-HT2A; test: HTRF IP-One antagonist assay, 5-HT2A; type: cell-based; conditions: HEK293 cells stably expressing receptor, inositol phosphate accumulation, 80 nM 5-HT in Assay Buffer;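 note: clonal line with low receptor density (about 50–70 fmol/mg), 10-point dose-response from 10 µM in 5-fold steps, HTRF detection after 1 hr, triplicate points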
5-HT2B = 5-HT2B (Homo sapiens (Human), UniProt P41595); test: HTRF IP-One antagonist assay, 5-HT2B; type: cell-based; conditions: HEK293 cells stably expressing receptor, inositol phosphate accumulation, 80 nM 5-HT in Assay Buffer;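 note: clonal HEK293 line with low 5-HT2B expression (estimated 150-200 fmol/mg by radioligand binding), IP-One HTRF readout, 10-point curves from 10 µM in 5-fold steps, triplicate points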
5-HT2B, sequence (P41595 whole entry): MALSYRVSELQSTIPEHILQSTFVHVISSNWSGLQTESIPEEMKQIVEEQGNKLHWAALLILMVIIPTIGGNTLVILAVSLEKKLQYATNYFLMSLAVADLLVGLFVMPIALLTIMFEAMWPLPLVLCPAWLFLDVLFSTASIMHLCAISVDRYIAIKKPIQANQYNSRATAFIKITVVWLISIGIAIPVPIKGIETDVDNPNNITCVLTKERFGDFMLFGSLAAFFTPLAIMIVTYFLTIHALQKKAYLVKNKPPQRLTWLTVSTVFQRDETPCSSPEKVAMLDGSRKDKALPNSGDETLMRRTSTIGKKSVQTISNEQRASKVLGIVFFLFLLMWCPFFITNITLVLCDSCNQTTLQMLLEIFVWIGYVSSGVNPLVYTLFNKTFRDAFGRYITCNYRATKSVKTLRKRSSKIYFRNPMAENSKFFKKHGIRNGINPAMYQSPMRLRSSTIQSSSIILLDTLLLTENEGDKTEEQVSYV

SMILES | Ki (5-HT2A [1]) | IC50 (5-HT2C) | IC50 (5-HT2A [2]) | IC50 (5-HT2B)
COc1cccc(C(=O)Nc2ccc(OCCN3CCCC3)c(-c3c(C)ncnc3C)c2)c1 [Compound 273, N-(3-(4,6-dimethylpyrimidin-5-yl)-4-(2-(pyrrolidin-1-yl)ethoxy)phenyl)-3-methoxybenzamide] | 0.00111 µM | 100 µM | 0.00168 µM | 
Cc1ncsc1C(=O)Nc1ccc(OCCN2CCC2)c(-c2c(C)ncnc2C)c1 [Compound 306, N-(4-(2-(azetidin-1-yl)ethoxy)-3-(4,6-dimethylpyrimidin-5-yl)phenyl)-4-methylthiazole-5-carboxamide] | 0.00265 µM | 100 µM | 0.00614 µM | 
Cc1ncnc(C)c1-c1cc(NC(=O)Cc2cccc(F)c2)ccc1OCCN1CCC1 [Compound 312, N-(4-(2-(azetidin-1-yl)ethoxy)-3-(4,6-dimethylpyrimidin-5-yl)phenyl)-2-(3-fluorophenyl)acetamide] | 0.000813 µM | 100 µM | 0.00238 µM | 
Cc1ccccc1C(=O)Nc1ccc(OCCN2CCC2)c(-c2c(C)ncnc2C)c1 [Compound 321, N-(4-(2-(azetidin-1-yl)ethoxy)-3-(4,6-dimethylpyrimidin-5-yl)phenyl)-2-methylbenzamide] |  | 100 µM | 0.0257 µM | 5.4 µM
Cc1ncnc(C)c1-c1cc(NC(=O)C2CC2)ccc1O[C@H]1CCCNC1 [Compound 419, (S)—N-(3-(4,6-dimethylpyrimidin-5-yl)-4-(piperidin-3-yloxy)phenyl)cyclopropanecarboxamide] | 0.443 µM |  |  | 
Cc1ncnc(C)c1-c1cc(NC(=O)C2CC2)ccc1OC[C@@H]1CCCCN1 [Compound 420, N-[3-(4,6-dimethylpyrimidin-5-yl)-4-[[(2S)-2-piperidyl]methoxy]phenyl]cyclopropanecarboxamide] | 0.0927 µM |  |  | 
Cc1ncnc(C)c1-c1cc(NC(=O)C2CC2)ccc1OC[C@H]1CCCCN1 [Compound 421] | 0.00941 µM |  |  | 
Cc1ncnc(C)c1-c1cc(NC(=O)[C@@H]2C[C@H]2F)ccc1OC[C@H]1CCCCN1 [Compound 422, (1S,2R)—N-[3-(4,6-dimethylpyrimidin-5-yl)-4-[[(2R)-2-piperidyl]methoxy]phenyl]-2-fluoro-cyclopropanecarboxamide] | 0.00458 µM |  |  | 
Cc1ncnc(C)c1-c1cc(NC(=O)[C@H]2C[C@H]2F)ccc1OC[C@H]1CCCCN1 [Compound 423, (1R,2R)—N-(3-(4,6-dimethylpyrimidin-5-yl)-4-(((R)-piperidin-2-yl)methoxy)phenyl)-2-fluorocyclopropane-1-carboxamide] | 0.0162 µM |  |  | 
Cc1ncnc(C)c1-c1cc(NC(=O)[C@@H]2C[C@@H]2F)ccc1OC[C@H]1CCCCN1 [Compound 424, (1S,2S)—N-(3-(4,6-dimethylpyrimidin-5-yl)-4-(((R)-piperidin-2-yl)methoxy)phenyl)-2-fluorocyclopropane-1-carboxamide] | 0.0125 µM |  |  | 
Cc1ncsc1C(=O)Nc1ccc(OC[C@H]2CCCCN2)c(-c2c(C)ncnc2C)c1 [Compound 425, (R)—N-(3-(4,6-dimethylpyrimidin-5-yl)-4-(piperidin-2-ylmethoxy)phenyl)-4-methylthiazole-5-carboxamide] | 0.0438 µM |  |  | 
Cc1nc(C)c(C(=O)Nc2ccc(OC[C@H]3CCCCN3)c(-c3c(C)ncnc3C)c2)s1 [Compound 426, (R)—N-(3-(4,6-dimethylpyrimidin-5-yl)-4-(piperidin-2-ylmethoxy)phenyl)-2,4-dimethylthiazole-5-carboxamide] | 0.0872 µM |  |  | 
Cc1cnoc1C(=O)Nc1ccc(OC[C@H]2CCCCN2)c(-c2c(C)ncnc2C)c1 [Compound 427, (R)—N-(3-(4,6-dimethylpyrimidin-5-yl)-4-(piperidin-2-ylmethoxy)phenyl)-4-methylisoxazole-5-carboxamide] | 0.0272 µM |  |  | 
Cc1ncoc1C(=O)Nc1ccc(OC[C@H]2CCCCN2)c(-c2c(C)ncnc2C)c1 [Compound 428, (R)—N-(3-(4,6-dimethylpyrimidin-5-yl)-4-(piperidin-2-ylmethoxy)phenyl)-4-methyloxazole-5-carboxamide] | 0.0353 µM |  |  | 
Cc1ncnc(C)c1-c1cc(NC(=O)c2cnoc2)ccc1OC[C@H]1CCCCN1 [Compound 429, (R)—N-(3-(4,6-dimethylpyrimidin-5-yl)-4-(piperidin-2-ylmethoxy)phenyl)isoxazole-4-carboxamide] | 0.131 µM |  |  | 
Cc1nocc1C(=O)Nc1ccc(OC[C@H]2CCCCN2)c(-c2c(C)ncnc2C)c1 [Compound 430, (R)—N-(3-(4,6-dimethylpyrimidin-5-yl)-4-(piperidin-2-ylmethoxy)phenyl)-3-methylisoxazole-4-carboxamide] | 0.0216 µM |  |  | 
Cc1ncnc(C)c1-c1cc(NC(=O)c2cnoc2C)ccc1OC[C@H]1CCCCN1 [Compound 431, (R)—N-(3-(4,6-dimethylpyrimidin-5-yl)-4-(piperidin-2-ylmethoxy)phenyl)-5-methylisoxazole-4-carboxamide] | 0.0549 µM |  |  | 

SMILES | Ki (5-HT2A [1]) | IC50 (5-HT2C) | IC50 (5-HT2A [2]) | IC50 (5-HT2B)
Cc1ncnc(C)c1-c1cc(NC(=O)c2ncoc2C)ccc1OC[C@H]1CCCCN1 [Compound 432, (R)—N-(3-(4,6-dimethylpyrimidin-5-yl)-4-(piperidin-2-ylmethoxy)phenyl)-5-methyloxazole-4-carboxamide] | 0.0191 µM |  |  | 
Cc1ncnc(C)c1-c1cc(NC(=O)c2cnsc2)ccc1OC[C@H]1CCCCN1 [Compound 433, (R)—N-(3-(4,6-dimethylpyrimidin-5-yl)-4-(piperidin-2-ylmethoxy)phenyl) isothiazole-4-carboxamide] | 0.00998 µM |  |  | 
Cc1nscc1C(=O)Nc1ccc(OC[C@H]2CCCCN2)c(-c2c(C)ncnc2C)c1 [Compound 434, (R)—N-(3-(4,6-dimethylpyrimidin-5-yl)-4-(piperidin-2-ylmethoxy)phenyl)-3-methylisothiazole-4-carboxamide] | 0.0193 µM |  |  | 
Cc1ncnc(C)c1-c1cc(NC(=O)c2ncsc2C)ccc1OC[C@H]1CCCCN1 [Compound 435, (R)—N-(3-(4,6-dimethylpyrimidin-5-yl)-4-(piperidin-2-ylmethoxy)phenyl)-5-methylthiazole-4-carboxamide] | 0.0107 µM | 100 µM | 0.0432 µM | 
Cc1ncnc(C)c1-c1cc(NC(=O)c2cccn2C)ccc1OC[C@H]1CCCCN1 [Compound 436, (R)—N-(3-(4,6-dimethylpyrimidin-5-yl)-4-(piperidin-2-ylmethoxy)phenyl)-1-methyl-1H-pyrrole-2-carboxamide] | 0.00605 µM | 100 µM | 0.0272 µM | 
Cc1ncnc(C)c1-c1cc(NC(=O)c2ccnn2C)ccc1OC[C@H]1CCCCN1 [Compound 437, N-[3-(4,6-dimethylpyrimidin-5-yl)-4-[[(2R)-2-piperidyl]methoxy]phenyl]-2-methyl-pyrazole-3-carboxamide] | 0.0107 µM |  |  | 
COC1(C(=O)Nc2ccc(OC[C@H]3CCCCN3)c(-c3c(C)ncnc3C)c2)CC1 [Compound 439, (R)—N-(3-(4,6-dimethylpyrimidin-5-yl)-4-(piperidin-2-ylmethoxy)phenyl)-1-methoxycyclopropane-1-carboxamide] | 0.0146 µM |  |  | 
Cc1ncnc(C)c1-c1cc(NC(=O)C2(O)CC2)ccc1OC[C@H]1CCCCN1 [Compound 440, (R)—N-(3-(4,6-dimethylpyrimidin-5-yl)-4-(piperidin-2-ylmethoxy)phenyl)-1-hydroxycyclopropane-1-carboxamide] | 0.0651 µM |  |  | 
CCC[C@@H](F)C(=O)Nc1ccc(OC[C@H]2CCCCN2)c(-c2c(C)ncnc2C)c1 [Compound 441, (R)—N-[3-(4,6-dimethylpyrimidin-5-yl)-4-[[(2R)-2-piperidyl]methoxy]phenyl]-2-fluoro-pentanamide] | 0.00567 µM | 100 µM | 0.0121 µM | 
Cc1ncnc(C)c1-c1cc(NC(=O)[C@H](F)C(C)C)ccc1OC[C@H]1CCCCN1 [Compound 442, (R)—N-(3-(4,6-dimethylpyrimidin-5-yl)-4-(((R)-piperidin-2-yl)methoxy)phenyl)-2-fluoro-3-methylbutanamide] | 0.0171 µM |  |  | 
Cc1ncnc(C)c1-c1cc(NC(=O)[C@@H](F)C(C)C)ccc1OC[C@H]1CCCCN1 [Compound 443, (S)—N-(3-(4,6-dimethylpyrimidin-5-yl)-4-(((R)-piperidin-2-yl)methoxy)phenyl)-2-fluoro-3-methylbutanamide] | 0.0188 µM |  |  | 
Cc1ncnc(C)c1-c1cc(NC(=O)C2(F)CCOCC2)ccc1OC[C@H]1CCCCN1 [Compound 445, (R)—N-(3-(4,6-dimethylpyrimidin-5-yl)-4-(piperidin-2-ylmethoxy)phenyl)-4-fluorotetrahydro-2H-pyran-4-carboxamide] | 0.0633 µM |  |  | 
Cc1ncnc(C)c1-c1cc(NC(=O)c2ccccc2)ccc1OC[C@H]1CCCCN1 [Compound 448, (R)—N-(3-(4,6-dimethylpyrimidin-5-yl)-4-(piperidin-2-ylmethoxy)phenyl)benzamide] | 0.0017 µM |  |  | 
Cc1ncnc(C)c1-c1cc(NC(=O)c2cccc(F)c2)ccc1OC[C@H]1CCCCN1 [Compound 449, (R)—N-(3-(4,6-dimethylpyrimidin-5-yl)-4-(piperidin-2-ylmethoxy)phenyl)-3-fluorobenzamide] | 0.00649 µM |  |  | 
COc1cccc(C(=O)Nc2ccc(OC[C@H]3CCCCN3)c(-c3c(C)ncnc3C)c2)c1 [Compound 450, (R)—N-(3-(4,6-dimethylpyrimidin-5-yl)-4-(piperidin-2-ylmethoxy)phenyl)-3-methoxybenzamide] | 0.00103 µM |  |  | 
CC(=N)NCCOc1ccc(NC(=O)C2CC2)cc1-c1c(C)ncnc1C [Compound 451, N-(4-(2-acetimidamidoethoxy)-3-(4,6-dimethylpyrimidin-5-yl)phenyl)cyclopropanecarboxamide] | 0.0526 µM |  |  | 
Cc1ncnc(C)c1-c1cc(NC(=O)C2(F)CC2)ccc1O[C@@H]1CCCNC1 [Compound 452, (R)—N-(3-(4,6-dimethylpyrimidin-5-yl)-4-(piperidin-3-yloxy)phenyl)-1-fluorocyclopropane-1-carboxamide] | 0.015 µM |  |  | 
